{"source": "patent US20090227489A1", "about": "“STAT3 Agonists and Antagonists and Therapeutic Uses Thereof” (Johns Hopkins University, priority 2000, published 2009)", "test_system": "B16 cells", "assay": "Macrophage-mediated antitumor cytotoxicity (3H-TdR incorporation)", "format": "cell-based, murine", "conditions": "added to macrophages before supernatant; NMA 0.5 mM, catalase 500 U/ml", "protocol": "Macrophages (˜1×10^5) were incubated in 50% supernatants from Stat3β-transfected (S-Stat3β) or GFP-vector transfected (S-GFP) B16 cells for 6 h. The supernatants were replaced by normal complete medium and wild-type B16 cells (1×10^4) were added.\nMacrophage-mediated antitumor cytotoxicity. Antitumor cytotoxic activity of macrophages against B16 cells was determined by inhibition of DNA synthesis. Briefly, peritoneal macrophages (1×10^5) were incubated in 50% supernatants derived from either wild type, pIRES-Stat3β or pIRES-GFP transfected, or UV-irradiated B16 cells for 6 h. After replacing the supernatants with normal complete medium, B16 cells (1.0×10^4/well) were added and co-cultured for 48 h with and without peritoneal macrophages. For some experiments, NOS inhibitor, N-monomethyl-L-arginine (NMA) (0.5 mM, Sigma) or H202 quencher, catalase (500 U/ml, Boehringer Mannheim, Indianapolis, Ind.) were added to macrophages before adding supernatant from Stat3β-transfected B16 cells. The co-cultured cells were pulsed with 3H-thymidine (3H-TdR) (0.25 μCi/well) during the last 6 h of incubation to estimate DNA synthesis. 3H-TdR incorporation was determined using a liquid scintillation β-counter (Pharmacia Wallac, Finland).\n3H-thymidine incorporation to estimate DNA synthesis and cell proliferation was performed.", "data": [{"substance": "catalase", "values": [{"measurement": "effect on macrophage-mediated cytostasis induced by Stat3β supernatant", "value": "does not influence macrophage cytotoxic effects against B16 cells"}]}]}
